Test results taken from article PMC8237258 (Journal of Medicinal Chemistry, 2021).
Where “and” joins values, the source holds several entries; their conditions need not be identical. Equal values may be shown once. Where a SMILES comes first, the peptide text is derived from it. Bridges are numbered along the chain shown (N, C = ends). [ ]: non-standard residue; d: D form.

Legend:
[1] = target: GC-C receptor (Homo sapiens, UniProt P25092); assay: cell-based
[2] = in vitro; conditions: pig, simulated gi fluid, pH 6.8
[3] = in vitro; conditions: simulated gi fluid, pH 1.3
[4] = in vivo; cited from earlier work
[5] = target: guanylate cyclase-C (human (endogenous in T84)) (UniProt P25092)
guanylate cyclase-C (human (endogenous in T84)), sequence (P25092 24-1073): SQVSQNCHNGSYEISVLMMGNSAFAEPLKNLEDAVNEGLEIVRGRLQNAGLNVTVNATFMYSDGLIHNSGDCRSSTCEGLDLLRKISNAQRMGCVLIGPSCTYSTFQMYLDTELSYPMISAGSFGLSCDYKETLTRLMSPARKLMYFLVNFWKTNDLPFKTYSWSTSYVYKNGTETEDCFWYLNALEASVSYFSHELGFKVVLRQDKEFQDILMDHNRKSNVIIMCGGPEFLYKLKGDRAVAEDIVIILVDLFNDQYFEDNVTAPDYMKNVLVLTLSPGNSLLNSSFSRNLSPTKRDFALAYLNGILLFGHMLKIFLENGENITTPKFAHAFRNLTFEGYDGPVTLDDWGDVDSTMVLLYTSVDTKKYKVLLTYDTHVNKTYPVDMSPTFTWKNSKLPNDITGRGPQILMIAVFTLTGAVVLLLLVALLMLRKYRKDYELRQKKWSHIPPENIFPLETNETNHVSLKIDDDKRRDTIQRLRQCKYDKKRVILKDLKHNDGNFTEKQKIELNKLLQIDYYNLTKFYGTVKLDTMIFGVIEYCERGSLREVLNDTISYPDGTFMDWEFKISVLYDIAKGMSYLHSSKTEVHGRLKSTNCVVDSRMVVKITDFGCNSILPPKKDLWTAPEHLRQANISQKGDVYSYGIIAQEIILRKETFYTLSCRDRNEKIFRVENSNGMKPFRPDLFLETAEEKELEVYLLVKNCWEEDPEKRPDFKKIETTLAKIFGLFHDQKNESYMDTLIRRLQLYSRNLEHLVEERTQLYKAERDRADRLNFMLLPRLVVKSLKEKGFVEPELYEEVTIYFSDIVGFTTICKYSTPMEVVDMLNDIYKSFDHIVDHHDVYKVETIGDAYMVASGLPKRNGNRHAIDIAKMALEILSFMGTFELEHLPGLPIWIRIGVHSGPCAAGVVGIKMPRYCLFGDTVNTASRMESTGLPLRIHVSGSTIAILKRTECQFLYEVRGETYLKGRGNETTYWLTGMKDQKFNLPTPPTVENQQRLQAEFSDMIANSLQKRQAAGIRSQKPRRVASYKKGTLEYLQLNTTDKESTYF

GC-C receptor, sequence (P25092 24-1073 limits assumed): as the sequence (P25092 24-1073) above

Compound	EC50 [1]	half-life [2]	half-life [3]	EC50 of cGMP accumulation in human T84 cells (cGMP HTRF assay kit) [5]	also measured
C[C@@H]1NC(=O)[C@@H]2CCCN2C(=O)[C@H](CC(N)=O)NC(=O)[C@@H]2CSSC[C@H](N)C(=O)N[C@H]3CSSC[C@H](NC1=O)C(=O)N[C@@H]([C@@H](C)O)C(=O)NCC(=O)N[C@H](C(=O)N[C@@H](Cc1ccc(O)cc1)C(=O)O)CSSC[C@H](NC(=O)[C@H](Cc1ccc(O)cc1)NC(=O)[C@H](CCC(=O)O)NC3=O)C(=O)N2 [Linaclotide, reference compound] (H-CCEYCCNPACTGCY-OH; disulfide 1-6, 2-10, 5-13 (inferred))	3.7 ± 0.5 nM	0.8 h	> 8 h		absorption into the systemic circulation [4]: insignificant; amount excreted in the feces [4]: 3–5%
C[C@@H]1NC(=O)[C@@H]2CCCN2C(=O)[C@H](CC(N)=O)NC(=O)[C@@H]2CSSC[C@H](N)C(=O)N[C@H]3CSSC[C@H](NC1=O)C(=O)N[C@@H]([C@@H](C)O)C(=O)NCC(=O)N[C@H](C(=O)N[C@@H](Cc1ccc(O)cc1)C(N)=O)CSSC[C@H](NC(=O)[C@H](Cc1ccc(O)cc1)NC(=O)[C@H](CCC(=O)O)NC3=O)C(=O)N2 [Linaclotide-NH2] (H-CCEYCCNPACTGCY-NH2; disulfide 1-6, 2-10, 5-13)	7.2 ± 2.1 nM	> 8 h	> 8 h		
C[C@@H]1NC(=O)[C@@H]2CCCN2C(=O)[C@H](CC(N)=O)NC(=O)[C@@H]2CSSC[C@H](N)C(=O)N[C@H]3CSSC[C@H](NC1=O)C(=O)N[C@@H]([C@@H](C)O)C(=O)NCC(=O)N[C@H](C(=O)N[C@H](Cc1ccc(O)cc1)C(N)=O)CSSC[C@H](NC(=O)[C@H](Cc1ccc(O)cc1)NC(=O)[C@H](CCC(=O)O)NC3=O)C(=O)N2 [[D-Tyr^14]-Linaclotide] (H-CCEYCCNPACTGC[dY]-NH2; disulfide 1-6, 2-10, 5-13)	16.5 ± 5.8 nM	> 8 h	> 8 h		EC50/EC50 linaclotide fold [1]: 4.5 fold
CC(C)[C@@H](NC(=O)[C@@H]1CSSC[C@@H]2NC(=O)[C@H](Cc3ccc(O)cc3)NC(=O)[C@H](CCC(=O)O)NC(=O)[C@@H]3CSSC[C@H](NC(=O)[C@H](C)NC(=O)[C@@H]4CCCN4C(=O)[C@H](CC(N)=O)NC(=O)[C@H](CSSC[C@H](N)C(=O)N3)NC2=O)C(=O)N[C@@H]([C@@H](C)O)C(=O)NCC(=O)N1)C(N)=O [[D-Val^14]-Linaclotide] (H-CCEYCCNPACTGC[dV]-NH2; disulfide 1-6, 2-10, 5-13)	104 ± 21.6 nM	> 8 h	> 8 h		EC50/EC50 linaclotide fold [1]: 28 fold; fold less potent than [D-Tyr^14]-Linaclotide [1]: 6 fold
C[C@@H]1NC(=O)[C@@H]2CCCN2C(=O)[C@H](CC(N)=O)NC(=O)[C@@H]2CSSC[C@@H]3NC(=O)[C@H](Cc4ccc(O)cc4)NC(=O)[C@@H]4CSSC[C@H](NC(=O)[C@H](Cc5ccc(O)cc5)NC(=O)[C@H](CCC(=O)O)NC(=O)[C@H](CSSC[C@H](NC1=O)C(=O)N[C@@H]([C@@H](C)O)C(=O)NCC(=O)N4)NC3=O)C(=O)N2 [[cyclic]-Linaclotide] (cyclo(ACTGCYCCEYCCNP); disulfide 2-8, 5-11, 7-12)	2990 ± 929 nM	> 8 h	> 8 h		EC50/EC50 linaclotide fold [1]: 808 fold and ~800 fold
C[C@@H]1NC(=O)[C@@H]2CCCN2C(=O)[C@H](CC(N)=O)NC(=O)[C@@H]2CSSC[C@H](N)C(=O)N[C@H]3CSSC[C@H](NC1=O)C(=O)N[C@@H]([C@@H](C)O)C(=O)NCC(=O)N[C@H](C(N)=O)CSSC[C@H](NC(=O)[C@H](Cc1ccc(O)cc1)NC(=O)[C@H](CCC(=O)O)NC3=O)C(=O)N2 [[desTyr^14]-Linaclotide-NH2] (H-CCEYCCNPACTGC-NH2; disulfide 1-6, 2-10, 5-13)	33.7 ± 5.7 nM	> 8 h	> 8 h		
Linaclotide (peptide)				3.7 nM	
Linaclotide-NH2 (peptide)				7.2 nM	
[D-Tyr^14]-Linaclotide (peptide)				16.5 nM	
[D-Val^14]-Linaclotide (peptide)				104 nM	
[Sec^1,6; D-Tyr^14]-Linaclotide (peptide)				5 nM	
[cyclic]-Linaclotide (peptide)				2990 nM	
[desTyr^14]-Linaclotide-NH2 (peptide)				33.7 nM	
